Assay results from patent US20230382916A1, “HETEROARYL HETEROCYCLIC COMPOUNDS AND USES THEREOF” (HUTCHISON MEDIPHARMA LIMITED, priority 2020, published 2023).

Test system: idiopathic thrombocytopenic purpura induced by anti-mouse CD41 antibodies
Assay: Idiopathic thrombocytopenic purpura induced by anti-CD41 antibody in mice, level of platelets
Assay type: in vivo
Protocol: Male C57BL/6 mice were purchased from Shanghai Lingchang Biotechnology Co., Ltd. (certificate number 20180003011079, initial body weight of 18-20 grams), and were randomly grouped according to Table 4, with 8 mice in each group. […] When modeling, each mouse was intraperitoneally injected with 200 μL of PBS solution containing […] of anti-mouse CD41 antibodies (BD, Cat #: 553487, Lot #: 7026765).
Eight hours and twenty-four hours after modeling, the whole blood was collected and placed in a centrifuge tube coated with 10% citrate-phosphate-dextrose-adenine (CPDA), and the level of platelets (PLT) in the whole blood was measured by an XT-2000i (SYSMEX) automatic blood analyzer (Shanghai Laboratory Animal Research Centre Sino-British SIPPR/B & K Lab Animal Ltd).
The average level of platelets in peripheral blood was analyzed with Graphpad statistical software by one way ANOVA followed by Fisher LSD multiple comparison test, and the p value was calculated, wherein *p<0.05 indicated a statistically significant difference compared with the vehicle control group, **p<0.01 indicated a statistically extremely significant difference compared with the vehicle control group, and ##p<0.01 indicated a statistically extremely significant difference compared with the normal group.
RR %=(PLTtreatment−PLTmodel)/(PLTnaive−PLTmodel)×100%.

C[C@H]1CN(C2COC2)C[C@H](C)N1c1ccc(Nc2cc(-c3ccnc(-n4ccn5c6c(cc5c4=O)CC(C)(C)C6)c3CO)cn(C)c2=O)nc1 [Compound 1, 2-(5-((5-((2S,6S)-2,6-dimethyl-4-(oxetan-3-yl)piperazin-1-yl)pyridin-2-yl)amino)-3′-(hydroxymethyl)-1-methyl-6-oxo-1,6-dihydro-[3,4′-bipyridin]-2′-yl)-7,7-dimethyl-7,8-dihydro-2H-cyclopenta[4,5]pyrrolo[1,2-a]pyrazin-1(6H)-one]
recovery rate of platelets (0.004 mg/kg oral single dose, 8 hours after modeling): 25% | recovery rate of platelets (0.004 mg/kg oral single dose, 24 hours after modeling): 5% | recovery rate of platelets (0.04 mg/kg oral single dose, 8 hours after modeling): 37% | recovery rate of platelets (0.04 mg/kg oral single dose, 24 hours after modeling): 21% | recovery rate of platelets (0.4 mg/kg oral single dose, 8 hours after modeling): 44% | recovery rate of platelets (0.4 mg/kg oral single dose, 24 hours after modeling): 29% | recovery rate of platelets (4 mg/kg oral single dose, 8 hours after modeling): 51% | recovery rate of platelets (4 mg/kg oral single dose, 24 hours after modeling): 29% | minimum effective dose (single oral dose, platelets 8 hours after modeling): 0.04 mg/kg
